Assay results reported in PubChem BioAssay (NCI).
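48-hour exposure; five concentrations; linearly interpolated endpoints. TGI denotes the concentration required for complete inhibition of growth.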

Key:
Assay in all cases: NCI anticancer screen, dose series, 48 h
K-562 leukemia = system: K-562 leukemia
CAKI-1 renal = system: CAKI-1 renal
A549 NSCLC = system: A549 NSCLC
DMS 114 small cell lung = system: DMS 114 small cell lung
LXFL 529 NSCLC = system: LXFL 529 NSCLC
MOLT-4 leukemia = system: MOLT-4 leukemia
HT29 colon = system: HT29 colon
SK-MEL-5 melanoma = system: SK-MEL-5 melanoma
UACC-257 melanoma = system: UACC-257 melanoma
MALME-3M melanoma = system: MALME-3M melanoma
KM12 colon = system: KM12 colon
SNB-19 CNS = system: SNB-19 CNS
OVCAR-3 ovarian = system: OVCAR-3 ovarian
SF-539 CNS = system: SF-539 CNS
ACHN renal = system: ACHN renal
OVCAR-8 ovarian = system: OVCAR-8 ovarian
SK-MEL-2 melanoma = system: SK-MEL-2 melanoma
SW-620 colon = system: SW-620 colon
CCRF-CEM leukemia = system: CCRF-CEM leukemia
IGROV1 ovarian = system: IGROV1 ovarian
XF 498 CNS = system: XF 498 CNS
OVCAR-5 ovarian = system: OVCAR-5 ovarian
RXF 393 renal = system: RXF 393 renal
HOP-92 NSCLC = system: HOP-92 NSCLC
SNB-75 CNS = system: SNB-75 CNS
UO-31 renal = system: UO-31 renal
SN12C renal = system: SN12C renal
DMS 273 small cell lung = system: DMS 273 small cell lung
M14 melanoma = system: M14 melanoma
SF-268 CNS = system: SF-268 CNS
COLO 205 colon = system: COLO 205 colon
NCI-H460 lung = system: NCI-H460 lung
HCT-15 colon = system: HCT-15 colon
NCI-H226 lung = system: NCI-H226 lung
A498 renal = system: A498 renal
NCI-H522 lung = system: NCI-H522 lung
SK-OV-3 ovarian = system: SK-OV-3 ovarian
OVCAR-4 ovarian = system: OVCAR-4 ovarian
786-0 renal = system: 786-0 renal
SNB-78 CNS = system: SNB-78 CNS
DLD-1 colon = system: DLD-1 colon
KM20L2 colon = system: KM20L2 colon
HCT-116 colon = system: HCT-116 colon
TK-10 renal = system: TK-10 renal
NCI-H23 lung = system: NCI-H23 lung
M19-MEL melanoma = system: M19-MEL melanoma
RPMI-8226 leukemia = system: RPMI-8226 leukemia
UACC-62 melanoma = system: UACC-62 melanoma
HOP-18 NSCLC = system: HOP-18 NSCLC
EKVX NSCLC = system: EKVX NSCLC
SK-MEL-28 melanoma = system: SK-MEL-28 melanoma
U251 CNS = system: U251 CNS
LOX IMVI melanoma = system: LOX IMVI melanoma

`COc1ccccc1/C=C(\NC(=O)c1ccccc1)c1nc2ccc(Cl)cc2[nH]1` was tested, and the TGI (K-562 leukemia) was > 100 µM, the TGI (CAKI-1 renal) was 74.4 µM and the TGI (A549 NSCLC) was 70.2 µM. The TGI (DMS 114 small cell lung) was 52.7 µM, the TGI (LXFL 529 NSCLC) was 62.9 µM and the TGI (MOLT-4 leukemia) was 54.9 µM. The TGI (HT29 colon) was > 100 µM, the TGI (SK-MEL-5 melanoma) was 33.7 µM and the TGI (UACC-257 melanoma) was > 100 µM. The TGI (MALME-3M melanoma) was > 100 µM, the TGI (KM12 colon) was > 100 µM and the TGI (SNB-19 CNS) was > 100 µM. For the same compound, the TGI (OVCAR-3 ovarian) was 49.6 µM, the TGI (SF-539 CNS) was > 100 µM and the TGI (ACHN renal) was 67.8 µM. For the same compound, the TGI (OVCAR-8 ovarian) was 73 µM, the TGI (SK-MEL-2 melanoma) was 65.7 µM and the TGI (SW-620 colon) was > 100 µM. For the same compound, the TGI (CCRF-CEM leukemia) was > 100 µM, the TGI (IGROV1 ovarian) was > 100 µM and the TGI (XF 498 CNS) was 89.5 µM. For the same compound, the TGI (OVCAR-5 ovarian) was > 100 µM, the TGI (RXF 393 renal) was > 100 µM and the TGI (HOP-92 NSCLC) was 56.8 µM. The TGI (SNB-75 CNS) was 70.7 µM, the TGI (UO-31 renal) was 46.6 µM and the TGI (SN12C renal) was > 100 µM. The TGI (DMS 273 small cell lung) was > 100 µM, the TGI (M14 melanoma) was > 100 µM and the TGI (SF-268 CNS) was > 100 µM. For the same compound, the TGI (COLO 205 colon) was 38.8 µM, the TGI (NCI-H460 lung) was > 100 µM and the TGI (HCT-15 colon) was > 100 µM. It also gave a TGI (NCI-H226 lung) of 58 µM, a TGI (A498 renal) of 80.9 µM and a TGI (NCI-H522 lung) of 49.5 µM. The TGI (SK-OV-3 ovarian) was 84 µM, the TGI (OVCAR-4 ovarian) was > 100 µM and the TGI (786-0 renal) was 87.1 µM. For the same compound, the TGI (SNB-78 CNS) was > 100 µM, the TGI (DLD-1 colon) was 88.9 µM and the TGI (KM20L2 colon) was > 100 µM. For the same compound, the TGI (HCT-116 colon) was > 100 µM, the TGI (TK-10 renal) was 73.7 µM and the TGI (NCI-H23 lung) was 69.3 µM. The TGI (M19-MEL melanoma) was > 100 µM, the TGI (RPMI-8226 leukemia) was 38.5 µM and the TGI (UACC-62 melanoma) was 55.3 µM. For the same compound, the TGI (HOP-18 NSCLC) was 82.6 µM, the TGI (EKVX NSCLC) was 78.7 µM and the TGI (SK-MEL-28 melanoma) was > 100 µM. The TGI (U251 CNS) was > 100 µM and the TGI (LOX IMVI melanoma) was > 100 µM.
